Experimental data from patent publication US10221139B2, “Inhibitors of histone demethylases” (Gilead Sciences, Inc., priority 2012, dated 2019).

Columns and labels:
Type in all cases: biochemical
[1] = target: T1, JMJD1B (KDM3B) (Homo sapiens, UniProt Q7LBC6); test: Histone lysine demethylase AlphaLISA assay, JMJD1B; settings: substrate BK9M2
T1 construct: 842-1761; host or cells: Bac (baculovirus)
T1 sequence (Q7LBC6 842-1761): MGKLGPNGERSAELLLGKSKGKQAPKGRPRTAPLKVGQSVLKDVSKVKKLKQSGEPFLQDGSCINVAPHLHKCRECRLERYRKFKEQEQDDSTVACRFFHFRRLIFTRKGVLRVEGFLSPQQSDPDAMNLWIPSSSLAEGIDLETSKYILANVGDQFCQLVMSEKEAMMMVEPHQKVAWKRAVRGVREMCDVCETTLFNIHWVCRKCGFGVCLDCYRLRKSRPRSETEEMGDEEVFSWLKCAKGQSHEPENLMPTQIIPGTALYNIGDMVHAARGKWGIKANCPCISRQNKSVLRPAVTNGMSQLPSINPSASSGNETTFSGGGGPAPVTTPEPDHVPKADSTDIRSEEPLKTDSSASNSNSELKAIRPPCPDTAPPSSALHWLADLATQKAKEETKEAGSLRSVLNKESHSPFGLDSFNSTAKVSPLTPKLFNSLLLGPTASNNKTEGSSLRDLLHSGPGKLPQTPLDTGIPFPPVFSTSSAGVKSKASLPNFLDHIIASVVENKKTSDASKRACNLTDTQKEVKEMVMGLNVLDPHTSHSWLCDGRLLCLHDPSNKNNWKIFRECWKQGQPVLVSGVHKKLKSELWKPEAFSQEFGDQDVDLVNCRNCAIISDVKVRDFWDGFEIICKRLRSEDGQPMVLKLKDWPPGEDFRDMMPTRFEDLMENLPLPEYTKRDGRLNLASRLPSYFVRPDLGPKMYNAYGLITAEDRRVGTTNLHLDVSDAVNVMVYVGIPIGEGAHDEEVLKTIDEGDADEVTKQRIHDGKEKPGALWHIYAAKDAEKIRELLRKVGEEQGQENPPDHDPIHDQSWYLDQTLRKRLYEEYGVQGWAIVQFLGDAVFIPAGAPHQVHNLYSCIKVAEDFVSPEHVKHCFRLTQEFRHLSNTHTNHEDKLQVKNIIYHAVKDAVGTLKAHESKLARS
Protocol: (§1) Example 2: Histone Lysine Demethylase AlphaLISA Assays for IC50 Value Determination
(§2) Assays are performed analogously to the protocol described by Perkin Elmer (Roy et al. Perkin Elmer Technical Note: AlphaLISA #12, April 2011).
(§3) Enzymes are dissolved in enzyme buffer and incubated for 10 min before 5 μL is added to 5 μL 3% DMSO solutions of compounds in enzyme buffer. Incubated for another 10 minutes, before 5 μL substrate solution is added and the reaction mixture is incubated at room temperature for the given period. 10 μL acceptor beads, suspended at given dilutions in Epigenetic Buffer (Perkin Elmer AL008) from stock, are added and the suspension is incubated 60 minutes in the dark at room temperature, before 10 μL suspension (at the given dilutions in Epigenetic Buffer) of streptavidin donor beads (Perkin Elmer 6760002) in Epigenetic Buffer is added. After incubation at room temperature in the dark the plates are read. Reaction conditions are seen in Table 2b.

[2] = target: T2, JMJD2A (KDM4A) (Homo sapiens, UniProt O75164); test: Histone lysine demethylase AlphaLISA assay, JMJD2A; settings: substrate BK9M3
T2 construct: 1-350; purchased BPS, Bioscience, US; host or cells: E. coli
T2 sequence (O75164 1-350): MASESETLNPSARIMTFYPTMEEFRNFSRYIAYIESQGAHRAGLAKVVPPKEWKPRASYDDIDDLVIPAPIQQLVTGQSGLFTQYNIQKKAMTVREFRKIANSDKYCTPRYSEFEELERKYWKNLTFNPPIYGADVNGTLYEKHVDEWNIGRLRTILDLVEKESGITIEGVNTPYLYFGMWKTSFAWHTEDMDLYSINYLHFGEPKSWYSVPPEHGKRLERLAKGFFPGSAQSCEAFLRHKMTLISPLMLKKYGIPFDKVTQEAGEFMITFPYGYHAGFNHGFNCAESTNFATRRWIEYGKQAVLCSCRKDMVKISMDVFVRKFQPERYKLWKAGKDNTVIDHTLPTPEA
Protocol: as §1, §2, §3

[3] = target: T3, JMJD3 (KDM6B) (Homo sapiens, UniProt O15054); test: Histone lysine demethylase AlphaLISA assay, JMJD3; settings: substrate BK27M3
T3 construct: 1043-end; purchased BPS; host or cells: Bac (baculovirus)
T3 sequence (O15054 1043-1682 isoform O15054-1 limits assumed): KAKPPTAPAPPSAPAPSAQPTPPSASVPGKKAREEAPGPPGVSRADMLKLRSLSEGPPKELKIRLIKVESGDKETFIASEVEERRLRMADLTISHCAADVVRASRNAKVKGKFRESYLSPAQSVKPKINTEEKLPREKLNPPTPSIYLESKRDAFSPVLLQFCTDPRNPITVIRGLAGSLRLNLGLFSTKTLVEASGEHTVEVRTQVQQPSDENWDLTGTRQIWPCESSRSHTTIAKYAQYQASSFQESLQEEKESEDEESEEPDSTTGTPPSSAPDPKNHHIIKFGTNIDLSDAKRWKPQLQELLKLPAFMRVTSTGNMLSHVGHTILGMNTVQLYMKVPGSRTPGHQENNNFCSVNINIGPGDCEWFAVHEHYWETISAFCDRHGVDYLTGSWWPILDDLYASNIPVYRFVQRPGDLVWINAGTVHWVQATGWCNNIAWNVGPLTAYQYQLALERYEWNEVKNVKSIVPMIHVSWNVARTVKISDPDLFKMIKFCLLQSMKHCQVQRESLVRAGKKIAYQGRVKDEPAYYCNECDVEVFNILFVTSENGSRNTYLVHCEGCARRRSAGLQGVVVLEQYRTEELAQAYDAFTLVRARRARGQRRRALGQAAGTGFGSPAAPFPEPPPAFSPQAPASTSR
Protocol: as §1, §2, §3

[4] = target: T4, UTX (KDM6A) (Homo sapiens, UniProt O15550); test: Histone lysine demethylase AlphaLISA assay, UTX; settings: substrate BK27M3
T4 construct: 919-1401; host or cells: E. coli
T4 sequence (O15550 919-1401): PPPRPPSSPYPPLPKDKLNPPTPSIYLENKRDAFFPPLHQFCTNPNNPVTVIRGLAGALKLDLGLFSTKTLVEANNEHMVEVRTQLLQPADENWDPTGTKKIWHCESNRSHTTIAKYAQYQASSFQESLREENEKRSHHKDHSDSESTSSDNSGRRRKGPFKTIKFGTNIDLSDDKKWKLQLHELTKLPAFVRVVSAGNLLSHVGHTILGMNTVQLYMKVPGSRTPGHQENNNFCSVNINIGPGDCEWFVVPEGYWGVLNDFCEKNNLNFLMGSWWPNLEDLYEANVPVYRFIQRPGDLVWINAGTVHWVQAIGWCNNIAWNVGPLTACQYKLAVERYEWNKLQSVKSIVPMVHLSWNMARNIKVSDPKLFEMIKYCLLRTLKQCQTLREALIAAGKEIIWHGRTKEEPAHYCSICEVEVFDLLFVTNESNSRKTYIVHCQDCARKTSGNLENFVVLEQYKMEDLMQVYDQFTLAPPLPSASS
In short: (§4)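 IC50 values come from an AlphaLISA signal: acceptor beads incubated 60 min in the dark, then streptavidin donor beads, both at room temperature. Beforehand, enzyme and compound were preincubated 10 min and the substrate reaction ran at room temperature.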

[5] = target: T5, GASC1 (KDM4C, JMJD2C) (Homo sapiens, UniProt Q9H3R0); test: Histone lysine demethylase AlphaLISA assay, GASC1; settings: substrate BK9M3
T5 construct: 1-349; host or cells: E. coli
T5 sequence (Q9H3R0 1-349): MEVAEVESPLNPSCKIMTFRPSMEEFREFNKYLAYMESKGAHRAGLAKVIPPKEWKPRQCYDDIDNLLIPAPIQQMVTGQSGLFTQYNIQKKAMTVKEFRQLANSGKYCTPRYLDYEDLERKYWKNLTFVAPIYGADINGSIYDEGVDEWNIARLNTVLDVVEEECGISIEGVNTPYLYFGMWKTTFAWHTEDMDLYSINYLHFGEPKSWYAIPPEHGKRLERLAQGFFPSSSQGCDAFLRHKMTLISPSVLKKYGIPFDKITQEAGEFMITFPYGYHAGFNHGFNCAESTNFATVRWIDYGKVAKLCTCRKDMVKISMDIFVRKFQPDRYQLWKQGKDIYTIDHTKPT
In short: as §4

[6] = target: T6, JMJD2B (KDM4B) (Homo sapiens, UniProt O94953); test: Histone lysine demethylase AlphaLISA assay, JMJD2B; settings: substrate BK9M3, read-out: JMUD2B IC50
T6 construct: 2-500; purchased BPS; host or cells: Bac (baculovirus)
T6 sequence (O94953 2-500): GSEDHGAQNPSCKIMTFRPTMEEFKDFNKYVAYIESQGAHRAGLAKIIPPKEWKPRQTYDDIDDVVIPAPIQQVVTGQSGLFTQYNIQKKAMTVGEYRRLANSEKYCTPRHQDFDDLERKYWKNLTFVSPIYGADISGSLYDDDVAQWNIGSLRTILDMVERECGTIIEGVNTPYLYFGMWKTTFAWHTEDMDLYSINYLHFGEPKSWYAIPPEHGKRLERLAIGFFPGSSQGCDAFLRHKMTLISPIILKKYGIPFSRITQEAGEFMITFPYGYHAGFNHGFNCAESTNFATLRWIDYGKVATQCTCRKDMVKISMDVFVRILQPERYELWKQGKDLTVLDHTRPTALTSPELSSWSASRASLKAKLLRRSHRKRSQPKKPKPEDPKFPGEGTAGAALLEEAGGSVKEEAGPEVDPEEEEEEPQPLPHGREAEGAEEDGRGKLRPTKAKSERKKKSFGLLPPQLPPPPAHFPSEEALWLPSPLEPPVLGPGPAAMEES
Protocol: as §1, §2, §3

[7] = target: T7, PLU1 (KDM5B) (Homo sapiens, UniProt Q9UGL1); test: Histone lysine demethylase AlphaLISA assay, PLU1; settings: substrate H3K4M3B
T7 construct: 1-809; host or cells: E. coli
T7 sequence (Q9UGL1 1-809): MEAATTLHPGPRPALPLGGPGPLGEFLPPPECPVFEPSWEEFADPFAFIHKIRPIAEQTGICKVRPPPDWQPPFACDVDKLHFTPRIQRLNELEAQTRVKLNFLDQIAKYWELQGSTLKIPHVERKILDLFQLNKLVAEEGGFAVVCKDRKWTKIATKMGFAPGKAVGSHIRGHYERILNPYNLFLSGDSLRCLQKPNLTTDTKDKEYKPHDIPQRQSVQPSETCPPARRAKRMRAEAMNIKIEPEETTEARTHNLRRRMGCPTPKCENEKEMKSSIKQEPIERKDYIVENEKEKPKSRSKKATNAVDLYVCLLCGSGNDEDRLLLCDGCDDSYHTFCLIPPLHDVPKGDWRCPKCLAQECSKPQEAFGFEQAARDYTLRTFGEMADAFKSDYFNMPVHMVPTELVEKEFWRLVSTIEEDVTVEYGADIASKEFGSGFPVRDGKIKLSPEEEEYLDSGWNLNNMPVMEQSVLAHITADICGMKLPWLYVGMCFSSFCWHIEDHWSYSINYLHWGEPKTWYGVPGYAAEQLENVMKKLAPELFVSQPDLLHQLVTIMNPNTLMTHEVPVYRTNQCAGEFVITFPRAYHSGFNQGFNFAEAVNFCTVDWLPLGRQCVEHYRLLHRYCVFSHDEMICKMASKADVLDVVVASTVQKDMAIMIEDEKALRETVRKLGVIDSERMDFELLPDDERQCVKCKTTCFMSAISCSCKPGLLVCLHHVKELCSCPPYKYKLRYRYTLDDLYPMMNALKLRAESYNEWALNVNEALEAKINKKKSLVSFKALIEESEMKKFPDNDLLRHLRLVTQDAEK
In short: as §4

[8] = target: T8, PHF8 (KDM7) (Homo sapiens, UniProt Q9UPP1); test: Histone lysine demethylase AlphaLISA assay, PHF8; settings: substrate BK9M2
T8 construct: KDM7 (PHF8); BRIC; 1-1322; Bac
T8 sequence (Q9UPP1 37-477 limits assumed): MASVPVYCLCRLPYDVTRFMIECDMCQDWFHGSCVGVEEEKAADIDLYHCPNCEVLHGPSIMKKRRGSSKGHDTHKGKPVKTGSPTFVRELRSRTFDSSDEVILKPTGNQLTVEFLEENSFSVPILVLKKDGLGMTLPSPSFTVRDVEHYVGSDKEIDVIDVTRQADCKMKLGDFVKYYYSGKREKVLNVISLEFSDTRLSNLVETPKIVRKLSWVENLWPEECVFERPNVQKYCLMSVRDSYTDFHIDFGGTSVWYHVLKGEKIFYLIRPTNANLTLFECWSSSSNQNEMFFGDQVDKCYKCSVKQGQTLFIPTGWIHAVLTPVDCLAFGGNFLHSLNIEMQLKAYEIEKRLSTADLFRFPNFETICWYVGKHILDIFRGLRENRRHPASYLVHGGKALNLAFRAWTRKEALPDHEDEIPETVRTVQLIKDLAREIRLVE
Protocol: as §1, §2, §3

[9] = target: T9, JARID1C (KDM5C) (Homo sapiens, UniProt P41229); test: Histone lysine demethylase AlphaLISA assay, JARID1C; settings: substrate H3K4M3B
T9 construct: 2-1560; purchased BPS; host or cells: Bac (baculovirus)
T9 sequence (P41229 2-1560): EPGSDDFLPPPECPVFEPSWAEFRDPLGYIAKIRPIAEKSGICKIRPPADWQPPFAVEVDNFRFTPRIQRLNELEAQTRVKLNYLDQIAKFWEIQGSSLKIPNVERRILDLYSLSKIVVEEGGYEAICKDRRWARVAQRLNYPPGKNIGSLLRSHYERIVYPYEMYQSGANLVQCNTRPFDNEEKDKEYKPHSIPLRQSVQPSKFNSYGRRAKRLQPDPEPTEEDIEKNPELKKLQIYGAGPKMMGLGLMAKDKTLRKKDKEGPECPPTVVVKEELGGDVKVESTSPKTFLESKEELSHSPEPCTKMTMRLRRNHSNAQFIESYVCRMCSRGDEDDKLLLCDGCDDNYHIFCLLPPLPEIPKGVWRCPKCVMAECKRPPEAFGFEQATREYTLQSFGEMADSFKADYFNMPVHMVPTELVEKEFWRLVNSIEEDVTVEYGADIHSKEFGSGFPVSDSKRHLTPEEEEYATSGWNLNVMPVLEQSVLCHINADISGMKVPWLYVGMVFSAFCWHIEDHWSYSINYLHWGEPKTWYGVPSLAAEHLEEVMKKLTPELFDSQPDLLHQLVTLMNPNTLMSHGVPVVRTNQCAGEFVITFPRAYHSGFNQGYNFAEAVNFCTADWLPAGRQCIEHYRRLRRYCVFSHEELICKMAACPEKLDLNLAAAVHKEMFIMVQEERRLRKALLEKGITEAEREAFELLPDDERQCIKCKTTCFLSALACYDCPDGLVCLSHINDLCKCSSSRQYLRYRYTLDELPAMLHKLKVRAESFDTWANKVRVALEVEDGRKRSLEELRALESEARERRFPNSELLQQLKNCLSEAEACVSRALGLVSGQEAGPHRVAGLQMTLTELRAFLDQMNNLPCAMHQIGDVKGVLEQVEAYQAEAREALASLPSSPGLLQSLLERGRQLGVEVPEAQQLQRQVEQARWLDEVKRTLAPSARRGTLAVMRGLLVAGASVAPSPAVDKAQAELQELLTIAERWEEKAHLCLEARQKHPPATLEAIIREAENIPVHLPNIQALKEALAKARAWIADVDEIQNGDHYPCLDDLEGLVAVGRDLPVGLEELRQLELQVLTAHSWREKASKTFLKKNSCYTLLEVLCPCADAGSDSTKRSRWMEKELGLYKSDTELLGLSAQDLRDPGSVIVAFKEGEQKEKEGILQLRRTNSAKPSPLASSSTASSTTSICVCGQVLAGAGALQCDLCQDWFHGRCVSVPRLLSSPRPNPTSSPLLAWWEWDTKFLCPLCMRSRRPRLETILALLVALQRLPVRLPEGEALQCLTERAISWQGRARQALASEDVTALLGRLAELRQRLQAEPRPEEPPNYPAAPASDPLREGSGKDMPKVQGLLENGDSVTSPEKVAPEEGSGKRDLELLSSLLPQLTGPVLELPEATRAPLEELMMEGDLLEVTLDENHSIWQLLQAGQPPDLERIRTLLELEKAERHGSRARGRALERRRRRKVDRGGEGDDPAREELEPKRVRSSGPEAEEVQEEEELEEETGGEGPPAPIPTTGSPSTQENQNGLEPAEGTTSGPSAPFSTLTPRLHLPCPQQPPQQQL
Protocol: as §1, §2, §3

[10] = target: T10, FBXL10 (KDM2B) (Homo sapiens, UniProt Q8NHM5); test: Histone lysine demethylase AlphaLISA assay, FBXL10; settings: substrate BH3K36M2
T10 construct: 1-650; purchased BPS, Bioscience, US; host or cells: Bac (baculovirus)
T10 sequence (Q8NHM5 1-650): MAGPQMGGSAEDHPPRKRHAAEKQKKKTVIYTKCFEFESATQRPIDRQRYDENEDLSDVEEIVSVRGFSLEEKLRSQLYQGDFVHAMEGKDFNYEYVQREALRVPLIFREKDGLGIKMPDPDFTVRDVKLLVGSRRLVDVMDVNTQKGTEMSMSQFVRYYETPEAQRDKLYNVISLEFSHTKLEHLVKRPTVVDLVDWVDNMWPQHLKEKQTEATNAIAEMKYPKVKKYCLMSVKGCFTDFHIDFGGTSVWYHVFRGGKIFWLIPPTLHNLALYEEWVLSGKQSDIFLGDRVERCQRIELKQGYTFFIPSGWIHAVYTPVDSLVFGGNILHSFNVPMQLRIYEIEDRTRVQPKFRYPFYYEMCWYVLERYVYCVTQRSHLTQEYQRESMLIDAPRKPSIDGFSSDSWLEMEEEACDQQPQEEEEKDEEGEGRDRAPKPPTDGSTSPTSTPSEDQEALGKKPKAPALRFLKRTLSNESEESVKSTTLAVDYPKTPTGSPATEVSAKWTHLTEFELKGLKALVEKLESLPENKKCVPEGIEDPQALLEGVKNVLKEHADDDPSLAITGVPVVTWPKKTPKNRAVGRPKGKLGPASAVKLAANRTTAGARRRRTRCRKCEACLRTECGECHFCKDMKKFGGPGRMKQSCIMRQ
Protocol: as §1, §2, §3

Structure (SMILES)	IC50 [1]	IC50 [2]	IC50 [3]	IC50 [4]	IC50 [5]	IC50 [6]	IC50 [7]	IC50 [8]	IC50 [9]	IC50 [10]
COc1ccc(CNCc2cc(C(=O)O)ccn2)c(OC)c1 [#11, 2-({[(2,4-dimethoxyphenyl)methyl]amino}methyl)pyridine-4-carboxylic acid]	≥ 1000 nM	≥ 1000 nM	≥ 1000 nM	≥ 1000 nM	≥ 1000 nM	≥ 1000 nM	< 100 nM	–	–	–
O=C(O)c1ccnc(CNCCCN2CCCC2)c1 [#46, 2-({[3-(pyrrolidin-1-yl)propyl]amino}methyl)pyridine-4-carboxylic acid]	–	100 to 1000 nM	≥ 1000 nM	≥ 1000 nM	100 to 1000 nM	< 100 nM	< 100 nM	≥ 1000 nM	< 100 nM	–
O=C(O)c1ccnc(CN[C@@H]2CCN(CCCc3ccccc3)C2)c1 [#28, 2-({[(3R)-1-(3-phenylpropyl)pyrrolidin-3-yl]amino}methyl)pyridine-4-carboxylic acid]	≥ 1000 nM	100 to 1000 nM	≥ 1000 nM	≥ 1000 nM	≥ 1000 nM	100 to 1000 nM	–	≥ 1000 nM	–	≥ 1000 nM
CN(CCCCN(Cc1ccccc1)C1CC1)C(=O)CNCc1cc(C(=O)O)ccn1 [#44, 2-({[({4-[benzyl(cyclopropyl)amino]butyl}(methyl)carbamoyl)methyl]amino}methyl)pyridine-4-carboxylic acid]	≥ 1000 nM	< 100 nM	–	–	< 100 nM	< 100 nM	–	100 to 1000 nM	< 100 nM	< 100 nM
CN(C)CCNCc1cc(C(=O)O)ccn1 [#2, 2-({[2-(dimethylamino)ethyl]amino}methyl)pyridine-4-carboxylic acid]	≥ 1000 nM	< 100 nM	≥ 1000 nM	≥ 1000 nM	< 100 nM	< 100 nM	–	–	–	–
CCN(CC)CCCCNCc1cc(C(=O)O)ccn1 [#48, 2-({[4-(diethylamino)butyl]amino}methyl)pyridine-4-carboxylic acid]	–	≥ 1000 nM	≥ 1000 nM	≥ 1000 nM	< 100 nM	< 100 nM	< 100 nM	≥ 1000 nM	< 100 nM	–
